Laboratory results taken from US9320745B2, “Use of cholest-4-en-3-one derivatives for obtaining a cytoprotective drug” (TROPHOS, priority 2006, dated 2016).

Tests used:
mice = experiment: Toxicological study in mice; format: in vivo; conditions: oral, sub-cutaneous, intra-peritoneal and intravenous routes, doses up to 300 mg/kg/day, daily, as far as 28 days
monkeys = experiment: Toxicological study in monkeys; format: in vivo; conditions: oral, increasing daily doses up to 1,500 mg/kg over 10 days
caspase-3 = experiment: Apoptosis by caspase-3 activity measurement in doxorubicin-exposed cardiomyocytes; format: cell-based, rabbit; conditions: 8 hrs after exposure, control 18±9 fmol/min
Protocol: (§1) Isolated ventricular cells are obtained from New Zealand male rabbit hearts as described in A. d'Anglemont de Tassigny et al., Fund. Clin. Pharmacol., 18: pp. 531-38, 2004. Briefly, the rabbits (2.0-2.5 kg) are anaesthesized with a pentobarbital (50 mg/kg) solution and then receive heparin (200 IU/kg). The hearts are excised and immediately perfused, for 10-15 minutes by means of a Langendorff apparatus without recirculation with an oxygenated (calcium-free) tyrode isotonic solution (95%, 2-5% CO2) (in mM: NaCl 135, KCl 5.4, Na2PO4 0.33, MgCl2 1.0, HEPES 10, pH adjusted to 7.4 with 1N NaOH at 37° C., 280-300 mOsmol/kgH2O). Next, all the hearts were perfused for 3 minutes in a “recirculation” mode with the same calcium-free Tyrode solution (coronary flow rate, 10-15 mL/min) added with 1 mg/mL of type II collagenase and 0.28 mg/mL of type XIV protease. Finally all the hearts are perfused in a mode without recirculation with the same solution of Tyrode supplemented with 0.3 mM CaCl2 for 10 min. The left ventricle is removed and cut into small pieces; cell dissociation is achieved by mild mechanical stirring. Extracellular calcium is added by increments every 15 minutes, in order to reach a physiological concentration of 1.0 mM. The isolated myocytes are maintained in a medium without serum containing (in mM) NaCl 110, KCl 5.4, Na2PO4 0.33, NaHCO3 25, Glucose 5, MgCl2 0.8, CaCl2 1, pH adjusted to 7.4, right up to 1 h30 before experimentation.
Caspase-3 activity is used as a quantitative method for measuring apoptosis. Briefly, the cells are lysed and the supernatant is used for caspase-3 activity measurement by using the AK-005 kit (Biomol Research Laboratories, Plymouth Meeting, Pa., USA). The fluorogenic substrate for measuring caspase-3 activity (DEVD) is marked with the fluorochrome, 7-amino-4-methyl coumarin (AMC) which produces […] fluorescence detectable in UV light at 360/460 nm for 210 min. AMC is released from the substrate by cleavage by caspase-3, the expression of the enzyme is expressed in fmol/min.
Apoptosis is induced in isolated cardiomyocytes by exposing them for 3 to 8 hrs to 1 μM of doxorubicin added in an isotonic solution containing (in mM) NaCl 110, KCl 5.4, Na2PO4 0.33, NaHCO3 25, Glucose 5, MgCl2 0.8, CaCl2 1, pH adjusted to 7.4. Annexin V marking was carried out 3 hrs after the beginning of exposure to doxorubicin since this phenomenon appears very early in the apoptotic cascade. Caspase-3 activity measurements were conducted 8 hrs after exposure to doxorubicin since this phenomenon takes place later in the apoptosis phenomenon. The contractility of cardiomyocytes was measured every hour during the 8 hrs of exposure to doxorubicin. After all the treatments, the cells were compared with control cardiomyocytes not exposed to doxorubicin. […]

Male CD1 adult mice = experiment: In vivo model of acute hepatotoxicity induced by Jo2 anti-Fas antibody (ALAT assay, survival)
Text: An acute hepatic damage model may be induced by a single injection of the Jo2 anti-Fas antibody (Ogasawara et al., Nature, August 1993), producing severe hepatic damages and resembling viral, auto-immune or drug-induced hepatitis.
Alanine Aminotransferase (ALAT) also called Serum Glutamic Pyruvic Transaminase (SGPT) is an enzyme present in hepatocytes.
The conducted experimentation consisted in intoxicating animals with Jo2 followed by an assay of ALATs and of testing the cholest-4-en-3-one oxime capability of protecting hepatocytes.
Male CD1 adult mice from the breeder “Elevage Janvier”, (Le Genest-Saint-Isle, France) were used. The animals were identified individually and had free access to water and food.
The stock solution of monoclonal hamster anti-mouse CD95 (Fas) antibody called Jo2, from Pharmingen (BD Biosciences, ref. 554254 batch 66081) is at a concentration of 1 mg/mL in water. The dilutions used are produced in 0.9% sodium chloride in water.
The desired amount of cholest-4-en-3-one oxime is weighed and milled into a fine powder, and then suspended (60 mg/ml) in maize oil. The compound is administered orally (by force-feeding) at a concentration of 5 ml/kg.
A pre-treatment with cholest-4-en-3-one oxime is carried out at a dose of 300 mg/kg per oral administration 4 hrs before administering the Jo2 antibody. […]

[1] = tested on: rabbit ventricular cardiomyocytes; experiment: Apoptosis by annexin V marking in doxorubicin-exposed cardiomyocytes; format: cell-based; conditions: 3 hrs after doxorubicin, control 100%
Protocol: as §1
Marking phosphatidylserine with annexin V was used as a quantitative method for measuring apoptosis by using the MiniMacs cell isolation kit (Miltenyi Biotec, Bergisch, Gladbach, Germany). Briefly, the cells exposing phosphatidylserine are marked with annexin V microbeads magnetically, and then passed into a column placed in a magnetic field. The marked cells (which have magnetically marked phosphatidylserine) are retained in the column whereas the non-marked ones (necrotic cells and non-apoptotic cells) are not retained. The column is removed from the magnetic field; the magnetically retained cells exposing phosphatidylserine are eluted as a positive fraction and counted with a Mallassez cell counter. The percentage of apoptotic cells is then referred to the initial number of cells.
(§2) Apoptosis is induced in isolated cardiomyocytes by exposing them for 3 to 8 hrs to 1 μM of doxorubicin added in an isotonic solution containing (in mM) NaCl 110, KCl 5.4, Na2PO4 0.33, NaHCO3 25, Glucose 5, MgCl2 0.8, CaCl2 1, pH adjusted to 7.4. Annexin V marking was carried out 3 hrs after the beginning of exposure to doxorubicin since this phenomenon appears very early in the apoptotic cascade. […] The contractility of cardiomyocytes was measured every hour during the 8 hrs of exposure to doxorubicin. […]

[2] = tested on: rabbit ventricular cardiomyocytes; experiment: Contractile dysfunction test induced by doxorubicin (sarcomere shortening of isolated cardiomyocytes); format: cell-based
Protocol: as §1
The myocytes are transferred into a chamber at 37° C., continuously perfused and positioned on the stage of an inverted microscope. The chamber is perfused with a physiological buffer containing (in mM): NaCl-140; KCl 5.4; CaCl2 1; MgCl2 0.8; HEPES 10 and glucose 5.6 (pH=7.4; 290 mOsmol/kgH2O).
Contraction of the myocytes is induced once a second (1 Hz) with platinum field electrodes placed in the chamber and connected to a simulator. The images are captured continuously with a ×20 objective and transmitted to a CCD camera at a rate of 240 samples/s. […]
The myocytes were selected for the study according to the following criterion: a rod-like aspect with very apparent striations and no intracellular vacuola, no spontaneous contraction when they are stimulated with 1 mM Ca^2+, and with constant rest length and contraction amplitude. The length of the sarcomers was measured by a video image analysis program and the data were captured at a rate of 240 samples/s. […]
as §2, with “7.4.” for “7.4. Annexin V marking was carried out 3 hrs after the beginning of exposure to doxorubicin since this phenomenon appears very early in the apoptotic cascade.”

For CC(C)CCC[C@@H](C)[C@H]1CC[C@H]2[C@@H]3CCC4=CC(=NO)CC[C@]4(C)[C@H]3CC[C@]12C [cholest-4-en-3-one oxime], the toxicity (mice) was “did not show any significant toxicity”, the toxicity (monkeys) was “did not reveal any toxicity” and the caspase-3 activity (caspase-3; doxorubicin + 0.3 μM compound) was 33 ± 9 fmol/min. For the same molecule, the caspase-3 activity (caspase-3; doxorubicin + 1 μM compound) was 18 ± 8 fmol/min, the caspase-3 activity (caspase-3; doxorubicin + 3 μM compound) was 11 ± 4 fmol/min and the “ALAT activity (U/L) Mean +/− SEM (n)” value (Male CD1 adult mice; 300 mg/kg oral 4 hrs before Jo2 125 μg/kg i.p., measured 24 hrs after Jo2, control 2,586 ± 474, p = 0.0037) was 1,136 ± 175 (20) U/L. For the same molecule, the “death of mice within 24 hrs following the Jo2 injection” value (Male CD1 adult mice; 300 mg/kg oral, 4 hrs before the Jo2 antibody) was “prevent the death of mice”, the “change in % of annexin V marking” value ([1]; doxorubicin + 0.3 μM compound) was 130% and the “change in % of annexin V marking” value ([1]; doxorubicin + 1 μM compound) was 121%. For the same molecule, the “change in % of annexin V marking” value ([1]; doxorubicin + 3 μM compound) was 115.5%, the “shortening of the peak relatively to the base line” value (shortened to “shortening of the peak relatively”) ([2]; 0.3 μM compound, 15 min pretreatment, 1 μM doxorubicin, after 4 hrs of exposure) was −25.35±0.18% and the “shortening of the peak relatively” value ([2]; 1 μM compound, 15 min pretreatment, 1 μM doxorubicin, after 4 hrs of exposure) was −15.66±5.72%. For the same molecule, the “shortening of the peak relatively” value ([2]; 3 μM compound, 15 min pretreatment, 1 μM doxorubicin, after 4 hrs of exposure) was −13.95±3.17%.
With COc1cccc2c1C(=O)c1c(O)c3c(c(O)c1C2=O)C[C@@](O)(C(=O)CO)C[C@@H]3O[C@H]1C[C@H](N)[C@H](O)[C@H](C)O1 [doxorubicin, reference compound] the caspase-3 activity (caspase-3; 1 μM doxorubicin alone) was 120 ± 15 fmol/min, the “change in % of annexin V marking” value ([1]; 1 μM doxorubicin alone) was 291% and the “shortening of the peak relatively” value ([2]; 1 μM doxorubicin alone, after 4 hours of exposure, control −19.49±2.06%, n=5) was −53.20±7.70%.
